Patent US9125913B2, “Bcl-2-selective apoptosis-inducing agents for the treatment of cancer and immune diseases” (AbbVie Inc., priority 2008, dated 2015)

Test system: GST-Bcl-2
Experiment: TR-FRET binding assay, Bcl-2
Conditions: TR-FRET Ki values
Outline: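 Compounds serially diluted in DMSO from 50 μM (2× starting concentration, 10% DMSO), mixed with GST-tagged protein, F-Bak peptide probe and Tb-labeled antibody, incubated 3 h at room temperature.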

Compound	Binding selectivity ratio (Bcl-XL Ki/Bcl-2 Ki)
CC1(C)CCC(CN2CCN(c3ccc(C(=O)NS(=O)(=O)c4ccc(NC5CCC(F)(F)CC5)c([N+](=O)[O-])c4)c(Oc4ccc5[nH]ccc5c4)c3)CC2)=C(c2ccc(Cl)cc2)C1 [EXAMPLE 305, 4-(4-{[2-(4-chlorophenyl)-4,4-dimethylcyclohex-1-en-1-yl]methyl}piperazin-1-yl)-N-({4-[(4,4-difluorocyclohexyl)amino]-3-nitrophenyl}sulfonyl)-2-(1H-indol-5-yloxy)benzamide]	>179.2
CN1CCC(Nc2ccc(S(=O)(=O)NC(=O)c3ccc(N4CCN(CC5=C(c6ccc(Cl)cc6)CC(C)(C)CC5)CC4)c(F)c3Oc3ccc4[nH]ccc4c3)cc2[N+](=O)[O-])CC1 [EXAMPLE 184, 4-(4-{[2-(4-chlorophenyl)-4,4-dimethylcyclohex-1-en-1-yl]methyl}piperazin-1-yl)-3-fluoro-2-(1H-indol-5-yloxy)-N-({4-[(1-methylpiperidin-4-yl)amino]-3-nitrophenyl}sulfonyl)benzamide]	>2345.3
CC1(C)CCC(CN2CCN(c3ccc(C(=O)NS(=O)(=O)c4ccc(NCCCS(C)(=O)=O)c([N+](=O)[O-])c4)c(Oc4cccc5[nH]ccc45)c3)CC2)=C(c2ccc(Cl)cc2)C1 [EXAMPLE 294, 4-(4-{[2-(4-chlorophenyl)-4,4-dimethylcyclohex-1-en-1-yl]methyl}piperazin-1-yl)-2-(1H-indol-4-yloxy)-N-[(4-{[3-(methylsulfonyl)propyl]amino}-3-nitrophenyl)sulfonyl]benzamide]	252
CC(C)(C)c1ccc(CN2CCN(c3ccc(C(=O)NS(=O)(=O)c4ccc(NC5CCN(C6CCOCC6)CC5)c([N+](=O)[O-])c4)c(Oc4ccc5[nH]ccc5c4)c3)CC2)c(-c2ccc(Cl)cc2)c1 [EXAMPLE 359, 4-{4-[(5-tert-butyl-4′-chloro-1,1′-biphenyl-2-yl)methyl]piperazin-1-yl}-2-(1H-indol-5-yloxy)-N-({3-nitro-4-[(1-tetrahydro-2H-pyran-4-ylpiperidin-4-yl)amino]phenyl}sulfonyl)benzamide]	>49.0
CO[C@H]1CC[C@H](CNc2ccc(S(=O)(=O)NC(=O)c3ccc(N4CCN(CC5=C(c6ccc(Cl)cc6)CC(C)(C)CC5)CC4)cc3Oc3cccc4[nH]cnc34)cc2[N+](=O)[O-])CC1 [EXAMPLE 440, Trans-2-(1H-benzimidazol-4-yloxy)-4-(4-{[2-(4-chlorophenyl)-4,4-dimethylcyclohex-1-en-1-yl]methyl}piperazin-1-yl)-N-[(4-{[(4-methoxycyclohexyl)methyl]amino}-3-nitrophenyl)sulfonyl]benzamide]	4549.1
CC1(C)CCC(CN2CCN(c3ccc(C(=O)NS(=O)(=O)c4ccc(NCC5COCCO5)c([N+](=O)[O-])c4)c(Oc4cccc5[nH]cnc45)c3)CC2)=C(c2ccc(Cl)cc2)C1 (stereo not shown) [EXAMPLE 450, 2-(1H-benzimidazol-4-yloxy)-4-(4-{[2-(4-chlorophenyl)-4,4-dimethylcyclohex-1-en-1-yl]methyl}piperazin-1-yl)-N-({4-[(1,4-dioxan-2-ylmethyl)amino]-3-nitrophenyl}sulfonyl)benzamide]	107.3
CC1(C)CCC(CN2CCN(c3ccc(C(=O)NS(=O)(=O)c4ccc(NN5CCN(CCO)CC5)c([N+](=O)[O-])c4)c(Oc4ccc5[nH]ccc5c4)c3)CC2)=C(c2ccc(Cl)cc2)C1 [EXAMPLE 233, 4-(4-{[2-(4-chlorophenyl)-4,4-dimethylcyclohex-1-en-1-yl]methyl}piperazin-1-yl)-N-[(4-{[4-(2-hydroxyethyl)piperazin-1-yl]amino}-3-nitrophenyl)sulfonyl]-2-(1H-indol-5-yloxy)benzamide]	>2714.3
CC1(C)CCC(CN2CCN(c3ccc(C(=O)NS(=O)(=O)c4ccc(NN5CCCCC5)c([N+](=O)[O-])c4)c(Oc4ccc5[nH]ccc5c4)c3)CC2)=C(c2ccc(Cl)cc2)C1 [EXAMPLE 284, 4-(4-{[2-(4-chlorophenyl)-4,4-dimethylcyclohex-1-en-1-yl]methyl}piperazin-1-yl)-2-(1H-indol-5-yloxy)-N-{[3-nitro-4-(piperidin-1-ylamino)phenyl]sulfonyl}benzamide]	>425.2
CC1(C)CCC(CN2CCN(c3ccc(C(=O)NS(=O)(=O)c4ccc(NC5CCN(CCCC(F)(F)F)CC5)c([N+](=O)[O-])c4)c(Oc4cccc5[nH]ccc45)c3)CC2)=C(c2ccc(Cl)cc2)C1 [EXAMPLE 210, 4-(4-{[2-(4-chlorophenyl)-4,4-dimethylcyclohex-1-en-1-yl]methyl}piperazin-1-yl)-2-(1H-indol-4-yloxy)-N-[(3-nitro-4-{[1-(4,4,4-trifluorobutyl)piperidin-4-yl]amino}phenyl)sulfonyl]benzamide]	>1057.6
CC1(C)CCC(CN2CCN(c3ccc(C(=O)NS(=O)(=O)c4ccc(NC5CCCCC5N)c([N+](=O)[O-])c4)c(Oc4ccc5[nH]ccc5c4)c3)CC2)=C(c2ccc(Cl)cc2)C1 (stereo not shown) [EXAMPLE 208, N-({4-[(2-aminocyclohexyl)amino]-3-nitrophenyl}sulfonyl)-4-(4-{[2-(4-chlorophenyl)-4,4-dimethylcyclohex-1-en-1-yl]methyl}piperazin-1-yl)-2-(1H-indol-5-yloxy)benzamide]	>1120.6
O=C(NS(=O)(=O)c1ccc(-n2ncc([N+](=O)[O-])n2)cc1)c1ccc(N2CCN(Cc3ccccc3-c3ccc(Cl)cc3)CC2)cc1Oc1ccccc1 [Example 31, 4-{4-[(4′-chloro-1,1′-biphenyl-2-yl)methyl]piperazin-1-yl}-N-{[4-(4-nitro-2H-1,2,3-triazol-2-yl)phenyl]sulfonyl}-2-phenoxybenzamide]	>18.0
CC1(C)CCC(CN2CCN(c3ccc(C(=O)NS(=O)(=O)c4ccc(NC5CCN(C6CC6)CC5)c([N+](=O)[O-])c4)c(Oc4cccc5[nH]cnc45)c3)CC2)=C(c2ccc(Cl)cc2)C1 [EXAMPLE 451, 2-(1H-benzimidazol-4-yloxy)-4-(4-{[2-(4-chlorophenyl)-4,4-dimethylcyclohex-1-en-1-yl]methyl}piperazin-1-yl)-N-({4-[(1-cyclopropylpiperidin-4-yl)amino]-3-nitrophenyl}sulfonyl)benzamide]	359.92
CC1(C)CCC(CN2CCN(c3ccc(C(=O)NS(=O)(=O)c4cnc(OCC5(F)CCOCC5)c(Cl)c4)c(Oc4cccc5[nH]cnc45)c3)CC2)=C(c2ccc(Cl)cc2)C1 [EXAMPLE 443, 2-(1H-benzimidazol-4-yloxy)-N-({5-chloro-6-[(4-fluorotetrahydro-2H-pyran-4-yl)methoxy]pyridin-3-yl}sulfonyl)-4-(4-{[2-(4-chlorophenyl)-4,4-dimethylcyclohex-1-en-1-yl]methyl}piperazin-1-yl)benzamide]	1935.7
CC1(C)CCC(CN2CCN(c3ccc(C(=O)NS(=O)(=O)c4ccc(OCC5(F)CCOCC5)c(Cl)c4)c(Oc4cccc5[nH]ncc45)c3)CC2)=C(c2ccc(Cl)cc2)C1 [EXAMPLE 464, N-({3-chloro-4-[(4-fluorotetrahydro-2H-pyran-4-yl)methoxy]phenyl}sulfonyl)-4-(4-{[2-(4-chlorophenyl)-4,4-dimethylcyclohex-1-en-1-yl]methyl}piperazin-1-yl)-2-(1H-indazol-4-yloxy)benzamide]	6432
CC1(C)CCC(CN2CCN(c3ccc(C(=O)NS(=O)(=O)c4cnc(OCCC5CCCO5)c(Cl)c4)c(Oc4cccc5[nH]ncc45)c3)CC2)=C(c2ccc(Cl)cc2)C1 (stereo not shown) [EXAMPLE 461, 4-(4-{[2-(4-chlorophenyl)-4,4-dimethylcyclohex-1-en-1-yl]methyl}piperazin-1-yl)-N-{[5-chloro-6-(2-tetrahydrofuran-2-ylethoxy)pyridin-3-yl]sulfonyl}-2-(1H-indazol-4-yloxy)benzamide]	39.44
CC1(C)CCC(CN2CCN(c3ccc(C(=O)NS(=O)(=O)c4ccc(OCC5CCOC(C)(C)C5)c([N+](=O)[O-])c4)c(Oc4ccc5[nH]ccc5c4)c3)CC2)=C(c2ccc(Cl)cc2)C1 (stereo not shown) [EXAMPLE 384, 4-(4-{[2-(4-chlorophenyl)-4,4-dimethylcyclohex-1-en-1-yl]methyl}piperazin-1-yl)-N-({4-[(2,2-dimethyltetrahydro-2H-pyran-4-yl)methoxy]-3-nitrophenyl}sulfonyl)-2-(1H-indol-5-yloxy)benzamide]	>8684.2
CN(C)CCNc1ccc(S(=O)(=O)NC(=O)c2ccc(N3CCN(Cc4ccccc4-c4ccc(Cl)cc4)CC3)cc2Oc2ccccc2)cc1[N+](=O)[O-] [Example 153, 4-{4-[(4′-chloro-1,1′-biphenyl-2-yl)methyl]piperazin-1-yl}-N-[(4-{[2-(dimethylamino)ethyl]amino}-3-nitrophenyl)sulfonyl]-2-phenoxybenzamide]	351
CC1(C)CCC(CN2CCN(c3ccc(C(=O)NS(=O)(=O)c4ccc(OCC5COCCO5)c([N+](=O)[O-])c4)c(Oc4ccc5[nH]ccc5c4)c3)CC2)=C(c2ccc(Cl)cc2)C1 (stereo not shown) [EXAMPLE 297, 4-(4-{[2-(4-chlorophenyl)-4,4-dimethylcyclohex-1-en-1-yl]methyl}piperazin-1-yl)-N-{[4-(1,4-dioxan-2-ylmethoxy)-3-nitrophenyl]sulfonyl}-2-(1H-indol-5-yloxy)benzamide]	2209.5
CC1(C)CCC(CN2CCN(c3ccc(C(=O)NS(=O)(=O)c4ccc(NC5CCN(CC6CC6)CC5)c([N+](=O)[O-])c4)c(Oc4ccc5[nH]ccc5c4)c3)CC2)=C(c2ccc(Cl)cc2)C1 [EXAMPLE 214, 4-(4-{[2-(4-chlorophenyl)-4,4-dimethylcyclohex-1-en-1-yl]methyl}piperazin-1-yl)-N-[(4-{[1-(cyclopropylmethyl)piperidin-4-yl]amino}-3-nitrophenyl)sulfonyl]-2-(1H-indol-5-yloxy)benzamide]	776.6
